Reference: US6143780A, “N-arylmethylthioanilide compounds useful for the inhibition of the replication of HIV” (Uniroyal Chemical Company, Inc., priority 1999, dated 2000)
Values after ≈ are worked out from the molar mass of the structure shown. Values joined by “and” are separate entries in the source; they are usually repeats but may differ in a detail not shown here. Equal entries are not always repeated. Where two headings read alike, the source gives them in different places.

What was measured:
Assay type in all cases: cell-based
HIV-1 (IIIB) = experiment: inhibition of HIV-1(IIIB) (WT) induced syncytium formation in CEM cells
Source text: (§1) CEM cells were obtained from the American Tissue Cell Culture Collection (Rockville, Md.) . HIV-1 (IIIB) was originally obtained from the culture supernatant of persistently HIV-1-infected H9 cells and was provided by R. C. Gallo and M. Popovic (National Cancer Institute, National Institutes of Health, Bethesda, Md.).
(§2) CEM cells were suspended at ≈300,000 cells per ml of culture medium and infected with approximately 100 CCID50 (CCID50 being the 50% cell culture infective dose) of HIV-1(IIIB) (designated as "WT" in Table 3) or one of the HIV-1 RT mutant strains described above. Then 100 μl of the infected cell suspensions was added to 200 μl microtiter plate wells containing 100 μl of appropriate serial (5-fold) dilutions of the test compounds. The inhibitiory effect of the test compounds on HIV-1 induced syncytium formation in CEM cells was examined microscopically on day 4 post infection. The 50% effective concentration (EC50) was defined as the test compound concentration that inhibits syncytium formation in the HIV-1-infected cell cultures by 50%.

HIV-1/100-Ile = experiment: inhibition of syncytium formation in CEM cells, HIV-1 RT mutant 100-Ile; details: Human immunodeficiency virus 1, CCRF-CEM, 96 h, read-out: EC50 100-Ile
Source text: as §1
(§3) The selection and characterization of the HIV-1 RT mutant strains were done as follows: HIV-1/100-Ile ("100-Ile") was selected for resistance against TIBO R82150 as described in Balzarini et al, Virology 192: 246-253 (1993); HIV-1/103-Asn ("103-Asn") was selected for resistance against TIBO R82913 as described in Balzarini et al, Virology 192: 246-253 (1993); HIV-1/106-Ala ("106-Ala") was selected for resistance against nevirapine as described in Balzarini et al, J. Virol. 67: 5353-5359 (1993); HIV-1/Lys-138 ("Lys-138") was selected for resistance against TSAO-m^3T as described in Balzarini et al, Virology 192: 246-253 (1993) and Balzarini et al, Proc. Nat. Acad. Sci. USA 90: 6952-6956 (1993); HIV-1/181-Cys ("181-Cys") was selected for resistance against pyridinone L-697,661 as described in Balzarini et al, Virology 192: 246-253 (1993); and HIV-1/188-His ("188-His") was selected for resistance against HEPT as described in Balzarini et al, Mol. Pharmocol. 44: 694-701 (1993). 188-His was then further converted to HIV-1/188-Leu ("188-Leu") upon further passage in cell culture in the absence of the HEPT. HIV-1/101-Glu ("101-Glu") and HIV-1/190-Glu ("190-Glu") were selected for resistance against the thiocarboxanilide derivative designated as UC38 as described in Balzarini et al, Antiviral Research 27: 219-236 (1995). HIV-1/184-Ile ("184-Ile") was selected for resistance against the combination of 3TC and TSAO-m^3 T as described in Balzarini et al, Molecular Pharm. 49: 882-890 (1996). HIV-1/184-Val ("184-Val") was selected for resistance against 3TC as described in Balzarini et al, Molecular Pharm. 49: 882-890 (1996).
as §2

HIV-1/101-Glu = experiment: inhibition of syncytium formation in CEM cells, HIV-1 RT mutant 101-Glu; details: Human immunodeficiency virus 1, CCRF-CEM, 96 h, read-out: EC50 101-Glu
Source text: as §1, §3, §2

103-Ala = experiment: inhibition of syncytium formation in CEM cells, HIV-1 RT mutant 103-Ala; details: Human immunodeficiency virus 1, CCRF-CEM, 96 h, read-out: EC50 103-Ala
HIV-1/106-Ala = experiment: inhibition of syncytium formation in CEM cells, HIV-1 RT mutant 106-Ala; details: Human immunodeficiency virus 1, CCRF-CEM, 96 h, read-out: EC50 106-Ala
Source text: as §1, §3, §2

138-Lys = experiment: inhibition of syncytium formation in CEM cells, HIV-1 RT mutant 138-Lys; details: Human immunodeficiency virus 1, CCRF-CEM, 96 h, read-out: EC50 138-Lys
Source text: as §1, §3, §2

HIV-1/181-Cys = experiment: inhibition of syncytium formation in CEM cells, HIV-1 RT mutant 181-Cys; details: Human immunodeficiency virus 1, CCRF-CEM, 96 h, read-out: EC50 181-Cys
Source text: as §1, §3, §2

HIV-1/184-Ile = experiment: inhibition of syncytium formation in CEM cells, HIV-1 RT mutant 184-Ile; details: Human immunodeficiency virus 1, CCRF-CEM, 96 h, read-out: EC50 184-IIe
Source text: as §1, §3, §2

HIV-1/184-Val = experiment: inhibition of syncytium formation in CEM cells, HIV-1 RT mutant 184-Val; details: Human immunodeficiency virus 1, CCRF-CEM, 96 h, read-out: EC50 184-Val
Source text: as §1, §3, §2

HIV-1/188-His = experiment: inhibition of syncytium formation in CEM cells, HIV-1 RT mutant 188-His; details: Human immunodeficiency virus 1, CCRF-CEM, 96 h, read-out: EC50 188-His
Source text: as §1, §3, §2

HIV-1/188-Leu = experiment: inhibition of syncytium formation in CEM cells, HIV-1 RT mutant 188-Leu; details: Human immunodeficiency virus 1, CCRF-CEM, 96 h, read-out: EC50 188-Leu
Source text: as §1, §3, §2

HIV-1/190-Glu = experiment: inhibition of syncytium formation in CEM cells, HIV-1 RT mutant 190-Glu; details: Human immunodeficiency virus 1, CCRF-CEM, 96 h, read-out: EC50 190-Glu
Source text: as §1, §3, §2

[1] = Human immunodeficiency virus 1, IIIB, CCRF-CEM, 96 h, Table 3, HIV-1(IIIB), day 4 post infection, read-out: EC50 WT
[2] = Table 2, day 4 post infection, replicate values, read-out: EC50, Activity Against HIV-1 (IIIB)
[3] = Human immunodeficiency virus 1, IIIB, CCRF-CEM, 96 h, Table 2, day 4 post infection, replicate values, read-out: EC50, Activity Against HIV-1 (IIIB)

Compound | EC50 (HIV-1 (IIIB); [1]) [µg/mL] | EC50 (HIV-1 (IIIB); [2]) | EC50 (HIV-1/100-Ile) [µg/mL] | EC50 (HIV-1/101-Glu) [µg/mL] | EC50 (103-Ala) [µg/mL] | EC50 (HIV-1/106-Ala) [µg/mL] | EC50 (138-Lys) [µg/mL] | EC50 (HIV-1/181-Cys) [µg/mL] | EC50 (HIV-1/184-Ile) [µg/mL] | EC50 (HIV-1/184-Val) [µg/mL] | EC50 (HIV-1/188-His) [µg/mL] | EC50 (HIV-1/188-Leu) [µg/mL] | EC50 (HIV-1/190-Glu) [µg/mL] | EC50 (HIV-1 (IIIB); [3]) [nM]
Cc1occc1C(=S)Nc1ccc(Cl)c(COc2ccc(F)cc2)c1 [Compound 11] | 0.065 | 85.1 nM and 161 nM and 276 nM | 0.95 | ≥ 2 | > 2 | 1.1 | 0.7 | 0.14 | 0.16 | 0.045 | > 2 | ≥ 2 | ≥ 2 | 
Cc1occc1C(=S)Nc1ccc(Cl)c(COc2cccc([N+](=O)[O-])c2)c1 [Compound 27] | 0.03 | 121 nM and 340 nM | 0.7 | 0.55 | > 2 | 1.57 | 0.23 | 0.5 | 0.11 | 0.4 | > 2 | > 2 | > 2 | 
Cc1ccc(Cl)c(OCc2cc(NC(=S)c3ccoc3C)ccc2Cl)c1 [Compound 37] | 0.025 | 19.2 nM and 76.6 nM | 2.33 | 1.4 | > 2 | > 2 | 0.33 | > 2 | 0.14 | 0.09 | 0.33 | 0.62 | > 2 | 
Cc1occc1C(=S)Nc1ccc(Cl)c(COc2c(F)cccc2F)c1 [Compound 16] | 0.0031 | 39.2 nM | 0.08 | 0.069 | 0.6 (≈ 1.52 µM) | 0.03 | 0.018 | 0.03 | 0.011 | 0.0036 | 0.52 | 0.95 | > 2 | 28.6
Cc1occc1C(=S)Nc1ccc(Cl)c(COc2ccccc2Cl)c1 [Compound 6, N-3-((2-chlorophenoxy)methyl)-4-chlorophenyl-2-methyl-3-furancarbothioamide] | 0.0067 | 104 nM | 0.23 | 0.11 | 1.2 (≈ 3.06 µM) |  | 0.025 | 0.09 | 0.047 | 0.018 | 0.053 |  | > 2 | 58.6
Cc1occc1C(=S)Nc1ccc(Cl)c(COc2ccccc2[N+](=O)[O-])c1 [Compound 19] | 0.0023 | 39.3 nM | 0.08 | 0.17 | 0.52 (≈ 1.29 µM) | 0.13 | 0.0075 | 0.13 | 0.0045 | 0.0041 | 0.12 | 1.35 | > 2 | 27.1
CC(=O)OCc1ccccc1OCc1cc(NC(=S)c2ccoc2C)ccc1Cl [Compound 15] | 0.49 |  | > 2 | > 2 | > 2 | > 2 | > 2 | > 2 | 1.2 | 0.5 | > 2 | > 2 | ≥ 2 | 
